From patent publication US20230146675A1, “PYRIMIDO[5,4-d]PYRIMIDINE DERIVATIVES AS ENT INHIBITORS FOR THE TREATMENT OF CANCERS, AND COMBINATION THEREOF WITH ADENOSINE RECEPTOR ANTAGONISTS” (ITEOS BELGIUM SA, priority 2020, published 2023)
Read-outs that look alike come from different tables or passages of the source.

Biological target: T1, Phosphodiesterase-6 (Bos taurus, UniProt P11541+P23439)
T1 construct: using an enzyme isolated from bovine retinas at Eurofins-Cerep; tissue Eurofins-Cerep; host or cells: bovine retinas
T1 sequence (P11541 2-856 limits assumed): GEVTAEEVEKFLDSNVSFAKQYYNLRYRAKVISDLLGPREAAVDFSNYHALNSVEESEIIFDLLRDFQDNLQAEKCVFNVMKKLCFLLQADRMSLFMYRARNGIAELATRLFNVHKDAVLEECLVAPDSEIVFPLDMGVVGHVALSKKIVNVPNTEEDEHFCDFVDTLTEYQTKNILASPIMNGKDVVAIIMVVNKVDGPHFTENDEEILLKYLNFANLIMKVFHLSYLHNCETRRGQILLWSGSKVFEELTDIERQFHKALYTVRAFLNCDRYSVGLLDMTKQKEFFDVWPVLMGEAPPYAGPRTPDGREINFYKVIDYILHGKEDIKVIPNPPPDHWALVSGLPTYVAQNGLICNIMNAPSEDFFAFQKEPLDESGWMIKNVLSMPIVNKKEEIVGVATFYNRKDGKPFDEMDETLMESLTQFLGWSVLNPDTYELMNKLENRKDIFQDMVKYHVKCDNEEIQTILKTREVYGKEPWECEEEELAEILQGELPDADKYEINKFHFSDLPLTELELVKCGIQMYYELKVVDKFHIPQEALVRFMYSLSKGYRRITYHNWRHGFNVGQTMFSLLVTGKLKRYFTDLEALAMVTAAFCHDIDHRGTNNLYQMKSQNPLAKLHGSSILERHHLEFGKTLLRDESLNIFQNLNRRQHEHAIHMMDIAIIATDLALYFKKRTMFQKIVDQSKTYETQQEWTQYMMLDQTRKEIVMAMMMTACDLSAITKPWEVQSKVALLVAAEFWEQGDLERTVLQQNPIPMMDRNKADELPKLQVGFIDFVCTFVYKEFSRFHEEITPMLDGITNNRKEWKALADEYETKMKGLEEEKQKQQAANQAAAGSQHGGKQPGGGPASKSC
T1 sequence (P23439 2-850 limits assumed): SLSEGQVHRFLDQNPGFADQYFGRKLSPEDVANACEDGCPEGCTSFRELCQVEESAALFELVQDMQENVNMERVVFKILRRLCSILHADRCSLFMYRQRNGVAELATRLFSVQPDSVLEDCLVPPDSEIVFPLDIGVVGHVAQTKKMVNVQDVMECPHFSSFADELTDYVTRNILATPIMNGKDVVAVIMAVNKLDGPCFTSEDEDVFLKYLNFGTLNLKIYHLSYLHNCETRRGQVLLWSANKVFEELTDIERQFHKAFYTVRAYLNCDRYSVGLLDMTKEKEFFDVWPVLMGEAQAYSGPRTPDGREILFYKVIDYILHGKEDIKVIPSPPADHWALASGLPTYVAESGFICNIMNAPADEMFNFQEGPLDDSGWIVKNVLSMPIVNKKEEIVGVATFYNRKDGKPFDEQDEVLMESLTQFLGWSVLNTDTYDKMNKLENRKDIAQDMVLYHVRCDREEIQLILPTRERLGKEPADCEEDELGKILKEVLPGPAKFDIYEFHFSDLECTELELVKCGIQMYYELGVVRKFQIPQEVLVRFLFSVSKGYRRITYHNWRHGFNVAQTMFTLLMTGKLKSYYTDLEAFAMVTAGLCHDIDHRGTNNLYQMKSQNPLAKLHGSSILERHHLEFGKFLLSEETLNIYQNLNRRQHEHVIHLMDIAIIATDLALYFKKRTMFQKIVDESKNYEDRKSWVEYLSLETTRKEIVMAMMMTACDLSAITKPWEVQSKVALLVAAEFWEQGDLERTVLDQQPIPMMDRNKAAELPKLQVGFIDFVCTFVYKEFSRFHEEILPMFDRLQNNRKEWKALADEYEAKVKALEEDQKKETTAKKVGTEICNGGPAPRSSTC
Assay: PDE6 (non-selective) assay
Assay type: biochemical, bovine
Description: The test compound (compound 72), reference compound or water (control) were added to a buffer containing 40 mM Tris/HCl (pH 7.4) and 8 mM MgCl2, 450 nM cAMP and 0.0125 μCi [3H]cAMP. Thereafter, the reaction was initiated by addition of the enzyme (about 1.5 U) and the mixture was incubated for 20 min at 22° C. For basal control measurements, the enzyme was omitted from the reaction mixture. Following incubation SPA beads were added. After 30 min at 22° C. under shaking, the amount of [3H]5′AMP was quantified with a scintillation counter (Topcount, Packard). The results were expressed as a percent inhibition of the control enzyme activity. The standard inhibitory reference compound was Ro 20-1724, which was tested in each experiment at several concentrations to obtain an inhibition curve from which its IC50 value was calculated. • Phosphodiesterase-6 quantified by measuring the formation of 5′GMP from cGMP using an enzyme isolated from bovine retinas at Eurofins-Cerep
The test compound (compound 72), reference compound or water (control) were added to a buffer containing 40 mM Tris/HCl (pH 7.8), 3 mM MgCl2, 1.4 mM DTT, 0.21% BSA, 200 mM NH4Cl, 2 μM cGMP and 0.05 μCi [3H]cGMP. […] After 20 min at 22° C. under shaking, the amount of [3H]5′GMP was quantified with a scintillation counter (Topcount, Packard). The results were expressed as a percent inhibition of the control enzyme activity. […]

IC50 (read-out: PDE6 (non-selective) IC50): 1 to 10 µM
IC50 (read-out: PDE6 IC50): 3.23 µM
Structure (SMILES): COCCN(CCOC)c1nc(N2CCN(C)C(=O)C2)c2nc(N(CCOC)CCOC)nc(N3CCC(OC)CC3)c2n1 [Compound 72, 4-(2,6-bis(bis(2-methoxyethyl)amino)-8-(4-methoxypiperidin-1-yl)pyrimido[5,4-d]pyrimidin-4-yl)-1-methylpiperazin-2-one]
